Source: article PMC4313523, “Decolorization of Anthraquinonic Dyes from Textile Effluent Using Horseradish Peroxidase: Optimization and Kinetic Study” (The Scientific World Journal, 2015)
Read-outs that look alike come from different tables or passages of the source.

Assays:
[1] = system: T1, horseradish peroxidase (HRP); assay: dye decolorization initial rates, fit to ping-pong bi-bi model with H2O2 inhibition (best fit); assay type: biochemical; settings: read-out: Hydrogen peroxide inhibition
T1 construct: gene PRXC1A; commercial enzyme from Sigma-Aldrich, 250 purpurogallin units per mg

[2] = system: T1, horseradish peroxidase (HRP); assay: dye decolorization initial rates, fit to ping-pong bi-bi model with dye inhibition; assay type: biochemical; settings: substrate inhibition (dead-end complex)
Text: dye decolorization initial rates, fit to ping-pong bi-bi model with dye inhibition on horseradish peroxidase (HRP)

Molecule | Km ([1]; co-substrate H2O2 varied at dye 0.018 mM, pH 5.25, 24 °C, 0.15 IU/mL HRP, R2 0.9902) [µM] | Dye inhibition ([2]; H2O2 fixed at 0.06 mM, dye 0.012-0.043 mM, pH 5.25, 24 °C, 0.15 IU/mL HRP, R2 0.9225) [mM] | Km ([1]; co-substrate H2O2 varied at dye 0.029 mM, pH 5.5, 24 °C, 0.04 IU/mL HRP, R2 0.9908) [µM] | Dye inhibition ([2]; H2O2 fixed at 0.1 mM, dye 0.015-0.051 mM, pH 5.5, 24 °C, 0.04 IU/mL HRP, R2 0.9602) [mM]
C.I. Acid Violet 109 [AV 109] | 330 | 0.0080 | – | –
Cc1cc(C)c(Nc2cc(S(=O)(=O)O)c(N)c3c2C(=O)c2ccccc2C3=O)c(C)c1NC(=O)C(Br)=CBr [AB 225, C.I. Acid Blue 225] | – | – | 152 | 0.0126
